Test results published in ChEMBL document CHEMBL3879901, “Substituted isoquinolin-1(2H)-ones, and methods of use thereof” (2012).

Experiments:
[1] = molecular target: PI3-kinase p110-delta/p85-alpha (Homo sapiens, UniProt O00329); assay: Inhibition of N-terminal His6-tagged recombinant full-length human p110delta/untagged recombinant full length p85alpha expressed in baculovirus infected Sf21 cells using phosphatidylinositol as substrate in presence of gamma-32P-ATP after 5 mins by thin layer chromatographic method
[2] = molecular target: PI3-kinase p110-alpha/p85-alpha (Homo sapiens, UniProt P42336); assay: Inhibition of N-terminal His6-tagged recombinant full-length human p110alpha/untagged recombinant full length human p85alpha expressed in baculovirus infected Sf21 cells using phosphatidylinositol as substrate in presence of gamma-32P-ATP after 5 mins by thin layer chromatographic method
[3] = Antiproliferative activity against Balb/c mouse splenic B cells preincubated for 30 mins followed by LPS or F(ab')2 donkey anti-mouse IgM and recombinant mouse IL4 stimulation measured after 72 hrs by Alamar Blue reduction assay; format: functional, cell-based
PI3K p110 beta/p85 alpha = PI3K p110 beta/p85 alpha (Homo sapiens, UniProt P42338); assay: Inhibition of N-terminal His6-tagged recombinant full-length human p110beta/untagged recombinant full length p85alpha expressed in baculovirus infected Sf21 cells using phosphatidylinositol as substrate in presence of gamma-32P-ATP after 5 mins by thin layer chromatographic method
[4] = molecular target: Phosphatidylinositol 4,5-bisphosphate 3-kinase catalytic subunit gamma isoform (Homo sapiens, UniProt P48736); assay: Inhibition of recombinant human C-terminal His6-tagged p110gamma expressed in insect cells using phosphatidylinositol as substrate in presence of gamma-32P-ATP after 5 mins by thin layer chromatographic method
Sequence of Phosphatidylinositol 4,5-bisphosphate 3-kinase catalytic subunit gamma isoform (P48736 whole entry, canonical isoform): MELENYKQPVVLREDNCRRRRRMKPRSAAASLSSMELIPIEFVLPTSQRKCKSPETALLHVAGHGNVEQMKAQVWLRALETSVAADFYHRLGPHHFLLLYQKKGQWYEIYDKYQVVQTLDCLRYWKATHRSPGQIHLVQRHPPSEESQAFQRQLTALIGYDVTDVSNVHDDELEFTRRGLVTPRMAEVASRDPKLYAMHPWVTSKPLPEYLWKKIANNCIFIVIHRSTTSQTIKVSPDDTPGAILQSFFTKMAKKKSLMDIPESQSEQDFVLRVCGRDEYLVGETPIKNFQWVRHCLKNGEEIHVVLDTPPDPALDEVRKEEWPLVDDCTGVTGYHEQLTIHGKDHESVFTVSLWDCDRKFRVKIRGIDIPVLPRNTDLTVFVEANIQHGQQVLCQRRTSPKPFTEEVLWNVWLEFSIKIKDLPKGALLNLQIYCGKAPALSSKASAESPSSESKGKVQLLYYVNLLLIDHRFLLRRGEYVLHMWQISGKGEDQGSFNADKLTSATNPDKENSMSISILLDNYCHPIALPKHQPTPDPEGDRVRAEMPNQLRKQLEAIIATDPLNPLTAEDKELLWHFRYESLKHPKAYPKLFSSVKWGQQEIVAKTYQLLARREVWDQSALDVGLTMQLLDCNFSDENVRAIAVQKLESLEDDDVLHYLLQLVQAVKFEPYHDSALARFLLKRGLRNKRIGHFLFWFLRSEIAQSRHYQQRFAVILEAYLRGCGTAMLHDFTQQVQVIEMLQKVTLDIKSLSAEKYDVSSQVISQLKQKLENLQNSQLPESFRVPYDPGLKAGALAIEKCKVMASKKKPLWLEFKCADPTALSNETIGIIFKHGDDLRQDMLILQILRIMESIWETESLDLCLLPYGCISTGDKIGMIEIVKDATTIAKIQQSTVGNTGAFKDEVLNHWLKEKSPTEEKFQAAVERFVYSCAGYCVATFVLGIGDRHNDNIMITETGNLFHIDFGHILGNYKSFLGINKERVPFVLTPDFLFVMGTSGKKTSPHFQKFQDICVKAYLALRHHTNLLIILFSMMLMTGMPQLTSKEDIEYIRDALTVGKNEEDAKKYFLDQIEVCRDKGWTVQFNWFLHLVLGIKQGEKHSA

Sequence of PI3K p110 beta/p85 alpha (P27986 whole entry, canonical isoform): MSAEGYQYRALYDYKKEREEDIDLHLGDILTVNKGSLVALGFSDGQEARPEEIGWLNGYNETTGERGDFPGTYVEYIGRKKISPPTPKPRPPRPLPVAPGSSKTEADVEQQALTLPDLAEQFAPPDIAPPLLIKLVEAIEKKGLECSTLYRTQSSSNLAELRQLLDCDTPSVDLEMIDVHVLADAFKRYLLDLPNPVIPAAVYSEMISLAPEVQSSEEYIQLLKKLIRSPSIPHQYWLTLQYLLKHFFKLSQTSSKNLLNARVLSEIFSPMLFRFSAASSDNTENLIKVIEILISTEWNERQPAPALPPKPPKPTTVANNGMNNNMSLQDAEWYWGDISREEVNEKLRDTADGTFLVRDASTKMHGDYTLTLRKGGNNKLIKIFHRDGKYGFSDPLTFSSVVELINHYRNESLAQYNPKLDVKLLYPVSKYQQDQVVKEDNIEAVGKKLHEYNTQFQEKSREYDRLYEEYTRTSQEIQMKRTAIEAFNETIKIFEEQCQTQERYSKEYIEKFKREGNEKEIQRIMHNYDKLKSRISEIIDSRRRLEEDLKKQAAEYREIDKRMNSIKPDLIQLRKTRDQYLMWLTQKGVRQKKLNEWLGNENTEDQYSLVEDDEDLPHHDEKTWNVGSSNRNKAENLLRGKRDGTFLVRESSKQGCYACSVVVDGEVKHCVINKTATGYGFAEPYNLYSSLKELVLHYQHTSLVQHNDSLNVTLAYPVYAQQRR
Sequence of PI3K p110 beta/p85 alpha (P42338 whole entry, canonical isoform): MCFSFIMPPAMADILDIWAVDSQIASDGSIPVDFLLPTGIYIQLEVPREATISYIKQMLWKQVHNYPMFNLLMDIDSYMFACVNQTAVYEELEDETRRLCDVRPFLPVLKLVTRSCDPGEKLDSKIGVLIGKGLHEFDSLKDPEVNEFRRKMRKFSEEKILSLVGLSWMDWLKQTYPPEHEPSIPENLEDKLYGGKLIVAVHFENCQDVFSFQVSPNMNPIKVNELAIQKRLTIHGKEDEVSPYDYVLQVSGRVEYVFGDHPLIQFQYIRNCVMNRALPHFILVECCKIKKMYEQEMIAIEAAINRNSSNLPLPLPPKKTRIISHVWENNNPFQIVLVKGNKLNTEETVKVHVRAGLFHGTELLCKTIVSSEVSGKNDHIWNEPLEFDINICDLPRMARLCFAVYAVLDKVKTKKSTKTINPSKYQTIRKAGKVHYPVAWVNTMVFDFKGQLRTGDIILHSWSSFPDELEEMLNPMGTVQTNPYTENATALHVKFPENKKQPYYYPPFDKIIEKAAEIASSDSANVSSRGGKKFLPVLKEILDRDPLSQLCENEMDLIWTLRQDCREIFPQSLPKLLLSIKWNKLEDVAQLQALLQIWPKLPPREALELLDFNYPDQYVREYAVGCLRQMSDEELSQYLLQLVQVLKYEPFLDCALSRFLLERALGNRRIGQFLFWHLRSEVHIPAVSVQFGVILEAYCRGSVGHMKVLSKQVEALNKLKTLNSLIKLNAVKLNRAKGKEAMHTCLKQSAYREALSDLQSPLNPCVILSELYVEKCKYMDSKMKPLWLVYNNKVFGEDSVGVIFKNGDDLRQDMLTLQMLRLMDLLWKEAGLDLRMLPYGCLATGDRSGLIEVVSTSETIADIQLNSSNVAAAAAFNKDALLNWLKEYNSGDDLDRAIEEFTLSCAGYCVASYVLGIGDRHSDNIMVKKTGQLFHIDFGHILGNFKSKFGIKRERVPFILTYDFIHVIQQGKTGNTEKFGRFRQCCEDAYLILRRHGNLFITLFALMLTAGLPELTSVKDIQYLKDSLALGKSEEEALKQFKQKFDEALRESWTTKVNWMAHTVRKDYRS
Sequence of PI3-kinase p110-delta/p85-alpha (P27986 whole entry): as the sequence (P27986 whole entry, canonical isoform) above
Sequence of PI3-kinase p110-delta/p85-alpha (O00329 whole entry): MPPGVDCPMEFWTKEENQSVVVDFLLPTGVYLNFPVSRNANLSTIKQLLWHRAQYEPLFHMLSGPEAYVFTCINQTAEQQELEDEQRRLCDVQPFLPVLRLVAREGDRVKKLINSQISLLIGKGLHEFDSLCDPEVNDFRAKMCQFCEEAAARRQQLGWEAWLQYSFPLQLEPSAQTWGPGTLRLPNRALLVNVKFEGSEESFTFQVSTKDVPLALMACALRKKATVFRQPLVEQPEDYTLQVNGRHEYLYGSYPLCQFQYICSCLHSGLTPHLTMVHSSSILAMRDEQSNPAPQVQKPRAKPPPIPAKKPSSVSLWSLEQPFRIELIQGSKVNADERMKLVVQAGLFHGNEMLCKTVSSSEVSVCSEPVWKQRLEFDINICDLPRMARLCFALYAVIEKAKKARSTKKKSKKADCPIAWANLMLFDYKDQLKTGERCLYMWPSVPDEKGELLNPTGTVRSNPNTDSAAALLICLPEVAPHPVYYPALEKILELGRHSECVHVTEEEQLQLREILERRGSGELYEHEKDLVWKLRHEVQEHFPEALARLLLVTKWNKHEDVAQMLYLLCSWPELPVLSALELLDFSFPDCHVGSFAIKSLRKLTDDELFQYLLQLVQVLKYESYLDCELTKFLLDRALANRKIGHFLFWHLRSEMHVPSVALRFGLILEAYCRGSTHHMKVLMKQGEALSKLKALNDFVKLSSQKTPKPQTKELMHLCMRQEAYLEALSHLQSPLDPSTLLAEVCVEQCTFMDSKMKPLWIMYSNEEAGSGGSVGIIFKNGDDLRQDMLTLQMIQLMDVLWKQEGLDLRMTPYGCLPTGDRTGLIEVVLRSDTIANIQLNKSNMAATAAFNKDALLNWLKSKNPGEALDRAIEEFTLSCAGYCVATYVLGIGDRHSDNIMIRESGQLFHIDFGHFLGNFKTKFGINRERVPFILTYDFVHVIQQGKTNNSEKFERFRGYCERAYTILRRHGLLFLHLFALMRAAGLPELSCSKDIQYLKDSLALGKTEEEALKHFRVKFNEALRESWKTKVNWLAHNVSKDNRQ
Sequence of PI3-kinase p110-alpha/p85-alpha (P27986 whole entry): as the sequence (P27986 whole entry, canonical isoform) above
Sequence of PI3-kinase p110-alpha/p85-alpha (P42336 whole entry): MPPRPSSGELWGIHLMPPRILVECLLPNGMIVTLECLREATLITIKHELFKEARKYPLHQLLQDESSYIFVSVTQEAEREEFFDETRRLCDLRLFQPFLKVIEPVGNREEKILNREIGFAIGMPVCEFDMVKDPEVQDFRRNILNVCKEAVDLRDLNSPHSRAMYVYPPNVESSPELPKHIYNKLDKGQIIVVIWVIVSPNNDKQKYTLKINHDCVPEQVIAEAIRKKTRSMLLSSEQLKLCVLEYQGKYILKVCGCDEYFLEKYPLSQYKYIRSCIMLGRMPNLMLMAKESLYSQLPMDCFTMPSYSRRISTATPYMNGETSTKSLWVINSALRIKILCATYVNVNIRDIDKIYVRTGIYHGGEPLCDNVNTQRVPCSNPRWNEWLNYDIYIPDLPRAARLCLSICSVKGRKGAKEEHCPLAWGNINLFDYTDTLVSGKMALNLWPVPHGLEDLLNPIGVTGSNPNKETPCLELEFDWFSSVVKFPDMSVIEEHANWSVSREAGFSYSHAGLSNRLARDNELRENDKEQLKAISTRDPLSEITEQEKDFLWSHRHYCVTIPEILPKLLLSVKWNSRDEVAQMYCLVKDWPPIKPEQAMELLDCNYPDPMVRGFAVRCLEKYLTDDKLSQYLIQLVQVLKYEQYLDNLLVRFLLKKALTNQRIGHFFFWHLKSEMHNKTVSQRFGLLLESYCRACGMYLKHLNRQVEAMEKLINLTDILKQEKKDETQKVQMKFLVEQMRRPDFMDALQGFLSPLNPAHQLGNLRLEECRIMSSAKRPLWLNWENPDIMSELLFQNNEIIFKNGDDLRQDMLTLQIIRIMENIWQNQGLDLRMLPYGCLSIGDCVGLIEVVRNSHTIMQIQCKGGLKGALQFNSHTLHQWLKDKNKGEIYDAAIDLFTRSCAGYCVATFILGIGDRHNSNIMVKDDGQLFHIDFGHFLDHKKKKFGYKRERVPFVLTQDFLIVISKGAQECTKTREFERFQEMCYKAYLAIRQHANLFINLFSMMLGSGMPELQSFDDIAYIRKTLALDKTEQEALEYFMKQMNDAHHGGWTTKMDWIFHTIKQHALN

Row | Structure (SMILES) | IC50 [1] [nM] | IC50 [2] [nM] | EC50 [3] [nM] | IC50 (PI3K p110 beta/p85 alpha) [nM] | IC50 [4] [nM]
1 | Cc1cccc2cc(Cn3nc(C#C[C@@H](C)O)c4c(N)ncnc43)n(-c3ccccc3F)c(=O)c12 | < 100 | > 10000 | < 1000 | > 10000 | < 1000
2 | Cc1ccccc1-n1c(Cn2nc(C#CCO)c3c(N)ncnc32)cc2cccc(C)c2c1=O | < 100 | > 10000 | < 1000 | > 10000 | < 1000
3 | Cc1cccc2cc(Cn3nc(-c4cc(O)cc(F)c4)c4c(N)ncnc43)n(-c3ccccc3OCCN3CCOCC3)c(=O)c12 | < 100 | < 10000 | < 100 | < 10000 | < 1000
4 | Cc1cccc2cc(Cn3nc(I)c4c(N)ncnc43)n(C)c(=O)c12 | < 1000 | > 10000 | < 1000 | > 10000 | < 10000
5 | Cc1ccccc1-n1c(Cn2nc(-c3cccc(F)c3)c3c(N)ncnc32)cc2cccc(C)c2c1=O | < 10000 | > 10000 | < 1000 | > 10000 | < 1000
6 | C=Cc1nn(Cc2cc3cccc(C)c3c(=O)n2-c2ccccc2C)c2ncnc(N)c12 | < 100 | > 10000 | < 100 | > 10000 | < 1000
7 | Cc1cccc2cc(Cn3nc(I)c4c(N)ncnc43)n(-c3ccccc3OCCN3CCOCC3)c(=O)c12 | < 100 | > 10000 | < 1000 | > 10000 | < 1000
8 | Cc1ccccc1-n1c(Cn2nc(-c3cn[nH]c3)c3c(N)ncnc32)cc2ccccc2c1=O | < 1000 | > 10000 | < 100 | > 10000 | < 10000
9 | Cc1cccc2cc(Cn3nc(-c4cnn(CCO)c4)c4c(N)ncnc43)n(-c3ccccc3F)c(=O)c12 | < 100 | > 10000 | 1000 to 10000 | > 10000 | < 1000
10 | Cc1cccc2cc(Cn3nc(Br)c4c(N)ncnc43)n(-c3ccccc3F)c(=O)c12 | < 1000 | > 10000 | < 1000 | > 10000 | < 10000
11 | Cc1ccccc1-n1c(Cn2nc(-c3ccc(F)cc3)c3c(N)ncnc32)cc2cccc(C)c2c1=O | < 10000 | > 10000 | < 10000 | > 10000 | < 1000
12 | Cc1cccnc1-n1c(Cn2nc(-c3cc(O)cc(F)c3)c3c(N)ncnc32)cc2ccccc2c1=O | < 100 | > 10000 | < 100 | > 10000 | < 1000
13 | Cc1ccccc1-n1c(Cn2nc(C#CC3CC3)c3c(N)ncnc32)cc2cccc(C)c2c1=O | < 1000 | > 10000 | < 1000 | > 10000 | < 1000
14 | Cc1cccc2cc(Cn3nc(C#C[C@@H](C)O)c4c(N)ncnc43)n(-c3ccccc3Cl)c(=O)c12 | < 100 | > 10000 | < 1000 | > 10000 | < 1000
15 | Cc1ccccc1-n1c(Cn2nc(C#C[C@@H](C)O)c3c(N)ncnc32)cc2cccc(C)c2c1=O | < 100 | > 10000 | < 100 | > 10000 | < 10000
16 | CCc1ccccc1-n1c(Cn2nc(C#C[C@@H](C)O)c3c(N)ncnc32)cc2cccc(C)c2c1=O | < 100 | > 10000 | < 100 | < 10000 | < 1000
17 | Cc1cccc2cc(Cn3nc(-c4cccc(O)c4)c4c(N)ncnc43)n(-c3ccccc3F)c(=O)c12 | < 100 | > 10000 | < 1000 | > 10000 | < 1000
18 | Cc1ccccc1-n1c(Cn2nc(C#C[C@@H](C)O)c3c(N)ncnc32)cc2cccc(F)c2c1=O | < 1000 | > 10000 | < 10000 | > 10000 | > 10000
19 | Cc1ccccc1-n1c(Cn2nc(-c3cc(O)cc(F)c3)c3c(N)ncnc32)cc2cccc(F)c2c1=O | < 100 | > 10000 | < 100 | < 10000 | < 1000
20 | Cc1cccnc1-n1c(Cn2nc(-c3cccc(O)c3)c3c(N)ncnc32)cc2cccc(C)c2c1=O | < 100 | > 10000 | < 100 | > 10000 | < 1000
21 | Cc1ccccc1-n1c(Cn2nc(I)c3c(N)ncnc32)cc2cccc(F)c2c1=O | < 1000 | > 10000 | < 1000 | > 10000 | < 10000
22 | Cc1cccc2cc(Cn3nc(C#C[C@@H](C)O)c4c(N)ncnc43)n(-c3ccccc3O)c(=O)c12 | < 100 | > 10000 | < 1000 | > 10000 | < 10000

Row | Structure (SMILES) | IC50 [1] [nM] | IC50 [2] [nM] | EC50 [3] [nM] | IC50 (PI3K p110 beta/p85 alpha) [nM] | IC50 [4] [nM]
23 | COc1ccccc1-n1c(Cn2nc(C#C[C@@H](C)O)c3c(N)ncnc32)cc2cccc(C)c2c1=O | < 100 | > 10000 | < 1000 | > 10000 | < 1000
24 | Cc1cccc2cc(Cn3nc(-c4cn[nH]c4)c4c(N)ncnc43)n(-c3cccc(F)c3)c(=O)c12 | < 100 | > 10000 | < 100 | > 10000 | < 1000
25 | Cc1cccnc1-n1c(Cn2nc(C#C[C@@H](C)O)c3c(N)ncnc32)cc2cccc(C)c2c1=O | < 1000 | > 10000 | < 1000 | > 10000 | > 10000
26 | Cc1cccc2cc(Cn3nc(-c4cccc(O)c4)c4c(N)ncnc43)n(-c3ccccc3OCCN3CCOCC3)c(=O)c12 | < 100 | > 10000 | < 100 | > 10000 | < 1000
27 | Cc1ccccc1-n1c(Cn2nc(-c3ccc4oc(N)nc4c3)c3c(N)ncnc32)cc2cccc(C)c2c1=O | < 100 | < 10000 | < 1000 | < 10000 | < 100
28 | Cc1cccc2cc(Cn3nc(/C=C4/SC(=O)NC4=O)c4c(N)ncnc43)n(-c3ccccc3F)c(=O)c12 | < 100 | < 10000 | < 100 | < 10000 | < 100
29 | Cc1ccccc1-n1c(Cn2nc(I)c3c(N)ncnc32)cc2cccc(C)c2c1=O | < 100 | > 10000 | 100 to 1000 | > 10000 | 100 to 1000
30 | Cc1ccccc1-n1c(Cn2nc(C#N)c3c(N)ncnc32)cc2cccc(C)c2c1=O | < 100 | > 10000 | < 100 | > 10000 | < 10000
31 | Cc1cccc2cc(Cn3nc(C#C[C@@H](C)O)c4c(N)ncnc43)n(C3CC3)c(=O)c12 | < 100 | > 10000 | < 1000 | < 1000 | < 1000
32 | Cc1cccc2cc(Cn3nc(I)c4c(N)ncnc43)n(C3CCC3)c(=O)c12 | < 100 | > 10000 | < 1000 | > 10000 | < 10000
33 | COc1ccccc1-n1c(Cn2nc(I)c3c(N)ncnc32)cc2cccc(C)c2c1=O | < 100 | > 10000 | < 1000 | > 10000 | < 1000
34 | Cc1cccc2cc(Cn3nc(-c4cc(O)cc(F)c4)c4c(N)ncnc43)n(C(C)C)c(=O)c12 | < 100 | < 10000 | < 100 | < 1000 | < 1000
35 | Cc1cccc2cc(Cn3nc(C#N)c4c(N)ncnc43)n(-c3ccccc3F)c(=O)c12 | < 100 | > 10000 | < 1000 | > 10000 | > 10000
36 | Cc1cccc2cc(Cn3nc(-c4cn[nH]c4)c4c(N)ncnc43)n(-c3ccccc3Cl)c(=O)c12 | 100 to 10000 | > 10000 | < 100 | > 10000 | < 1000
37 | Cc1cccc2cc(Cn3nc(-c4ccc(F)c(O)c4)c4c(N)ncnc43)n(-c3ccccc3F)c(=O)c12 | < 100 | > 10000 | < 1000 | > 10000 | < 1000
38 | Cc1ccccc1-n1c(Cn2nc(/C=C/C(N)=O)c3c(N)ncnc32)cc2cccc(C)c2c1=O | < 100 | > 10000 | < 100 | < 10000 | < 100
39 | Cc1ccccc1-n1c(Cn2nc(/C=C3/SC(=O)NC3=O)c3c(N)ncnc32)cc2cccc(C)c2c1=O | < 100 | < 10000 | < 100 | < 10000 | < 100
40 | COc1cccc(-c2nn(Cc3cc4cccc(C)c4c(=O)n3-c3ccccc3C)c3ncnc(N)c23)c1 | < 1000 | > 10000 | < 1000 | < 10000 | < 1000
41 | Cc1cccc2cc(Cn3nc(C#CCO)c4c(N)ncnc43)n(-c3ccccc3F)c(=O)c12 | < 100 | > 10000 | < 1000 | > 10000 | < 1000
42 | Cc1cccc2cc(Cn3nc(C#C[C@@H](C)O)c4c(N)ncnc43)n(C(C)C)c(=O)c12 | < 100 | > 10000 | < 1000 | < 10000 | < 10000
43 | Cc1cccc2cc(Cn3nc(-c4cn[nH]c4)c4c(N)ncnc43)n(-c3ccccc3F)c(=O)c12 | < 100 | > 10000 | < 1000 | < 10000 | < 1000
